From article PMC4499255, “Monitoring Conformational Changes in the NDM-1 Metallo-β-lactamase by ^19F NMR Spectroscopy” (Angewandte Chemie (International Ed. in English), 2014)
Read-outs that look alike come from different tables or passages of the source.

How the values were obtained:
NDM-1 [1] = molecular target: T1, NDM-1 (Klebsiella pneumoniae, UniProt C7C422)
[2] = test system: C[C@@H](O)[C@H]1C(=O)N2C(C(=O)O)=C(S[C@@H]3CN[C@H](C(=O)N(C)C)C3)[C@H](C)[C@H]12; assay: purified protein, by the assay type; details: other: unlabeled NDM-1; substrate affinity; 25.0 °C
Method: We then investigated the kinetic properties of NDM-1* compared to unlabeled NDM-1.
using 0.5 nM NDM-1 and 1 nM NDM-1* for meropenem measurements and 0.25 nM NDM-1 and 2

[3] = molecular target: NDM-1* (BFA-labeled M67C NDM-1) (Klebsiella pneumoniae, UniProt C7C422, M67C); type: biochemical; details: labeled NDM-1*; for Km: substrate affinity
Chain of NDM-1* (BFA-labeled M67C NDM-1) (C7C422 37-270 M67C): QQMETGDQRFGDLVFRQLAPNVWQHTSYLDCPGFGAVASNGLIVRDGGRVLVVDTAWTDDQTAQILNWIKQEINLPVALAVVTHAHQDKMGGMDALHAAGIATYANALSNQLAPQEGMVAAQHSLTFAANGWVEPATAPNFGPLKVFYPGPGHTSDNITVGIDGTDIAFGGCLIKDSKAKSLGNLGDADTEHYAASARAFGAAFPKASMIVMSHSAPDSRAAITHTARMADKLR
Method: (§1) buffer was prepared freshly prior to the reaction.
Kinetic and inhibition analyses were performed as described1. K measurements were performed
(§2) nM NDM-1* for nitrocefin measurements. […]

NDM-1 [4] = molecular target: T1, NDM-1; details: unlabeled NDM-1; cited from earlier work
[5] = molecular target: di-ZnII-NDM-1* (BFA-labeled M67C NDM-1) (Klebsiella pneumoniae, UniProt C7C422, M67C); assay: 19F NMR ligand titration / binding assay
Chain of di-ZnII-NDM-1* (BFA-labeled M67C NDM-1) (C7C422 37-270 M67C): as above
Method: To calculate the molar fraction of protein–ligand complex, Equation (1) was used: [drawing 1] (1) where [P0] is the total protein concentration and [L0] is the total ligand concentration titrated into solution. […]
as §1
Kinetic and inhibition analyses were performed as described1. K measurements were performed […]
as §2
with rf field of 3.125 kHz.
768 scans and a recovery delay of 1s. Data were processed with 3 Hz Lorentzian line broadening […]
Trifluoroacetic acid (TFA, 50 µM) […]
was used as an internal standard. All inhibitor incubations were compared to appropriate NDM-1* […]
A DMSO titration curve was used for reference
Metal binding experiments

T1 sequence (C7C422 37-270 limits assumed): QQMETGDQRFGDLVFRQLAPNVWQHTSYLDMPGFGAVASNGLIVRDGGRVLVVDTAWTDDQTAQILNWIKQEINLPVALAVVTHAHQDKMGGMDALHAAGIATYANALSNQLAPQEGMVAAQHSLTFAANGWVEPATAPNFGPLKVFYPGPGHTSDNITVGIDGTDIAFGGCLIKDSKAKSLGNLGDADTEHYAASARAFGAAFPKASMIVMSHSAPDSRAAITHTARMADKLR

O=C(N[C@H](Cc1c[nH]c2ccccc12)C(=O)O)c1nc(Cl)c2ccccc2c1O [compound 4, (R)-2-(1-chloro-4-hydroxyisoquinoline-3-carboxamido)-3-(1H-indol-3-yl)propanoic acid]
IC50 (NDM-1 [1]; NDM-1; read-out: reported IC50; cited from earlier work): 47 µM

NDM-1 (Klebsiella pneumoniae)
Km [2]: 76.6 ± 4.4 µM
kcat [2]: 235 ± 5.6 s⁻¹

C[C@@H](O)[C@H]1C(=O)N2C(C(=O)O)=C(S[C@@H]3CN[C@H](C(=O)N(C)C)C3)[C@H](C)[C@H]12 [Meropenem]
kcat [3]: 67.8 ± 4.3 s⁻¹
Km [3]: 54.8 ± 9.4 µM

O=C(Cc1cccs1)N[C@@H]1C(=O)N2C(C(=O)O)=C(/C=C/c3ccc([N+](=O)[O-])cc3[N+](=O)[O-])CS[C@H]12 [Nitrocefin]
kcat [3]: 22.9 ± 0.6 s⁻¹
Km [3]: 6.2 ± 0.7 µM
kcat (NDM-1 [4]): 25.3±1.6^[a] s^−1

O=C(N[C@@H](Cc1c[nH]c2ccccc12)C(=O)O)c1nc(Cl)c2ccccc2c1O [compound 3, (S)-2-(1-chloro-4-hydroxyisoquinoline-3-carboxamido)-3-(1H-indol-3-yl)propanoic acid]
Kd [5]: 131 µM
IC50 (NDM-1 [1]; read-out: reported IC50; NDM-1; cited from earlier work): 61 µM

C[C@H]1[C@H](NC(=O)/C(=N\OC(C)(C)C(=O)O)c2csc(N)n2)C(=O)N1S(=O)(=O)O [aztreonam]
19F chemical shift change upon addition of ligand (binding) ([5]; ligand 2.5 mM): no ^19F chemical shift change was observed
reported inhibition of NDM-1 (NDM-1 [1]; ref 9b; cited from earlier work): not to inhibit NDM-1
